biological target: T1, chicken gizzard smooth muscle myosin subfragment-1 chemically crosslinked to cardiac or skeletal actin (Gallus gallus, UniProt P10587); assay: Smooth muscle myosin ATPase dose response assay (pyruvate kinase/horseradish peroxidase/pyruvate oxidase-coupled, amplex red fluorescence); assay type: biochemical; conditions: read-out: IC50 Arithmetic Mean
T1 construct: chicken gizzard smooth muscle myosin subfragment-1; from tissue; host or cells: chicken gizzard
Description: In Vitro Model of Dose Dependent Smooth Muscle Myosin ATPase Modulation
Screening assays were performed using a pyruvate kinase and lactate dehydrogenase-coupled ATPase assay containing the following reagents: Potassium PIPES (50 mM), MgCl2 (3 mM), KCl (100 mM), ATP (0.15 mM), DTT (1 mM), BSA (0.1 mg/ml), NADH (0.5 mM), PEP (1.5 mM), pyruvate kinase (4 U/ml), lactate dehydrogenase (8 U/ml), and antifoam (50 ppm) (concentrations expressed are final assay concentrations). The pH was adjusted to 6.80 at 22° C. by addition of potassium hydroxide. Lead optimization assays were performed with a more sensitive pyruvate kinase/horseradish peroxidase/pyruvate oxidase-coupled ATPase assay containing the following reagents: Potassium PIPES (12 mM), MgCl2 (2 mM), KCl (100 mM), ATP (0.15 mM), BSA (0.05 mg/ml), potassium phosphate (2 mM), amplex red (0.1 mM), PEP (0.1 mM), pyruvate kinase (4 U/ml), horseradish peroxidase (0.5 U/ml), pyruvate oxidase (0.5 U/ml), and antifoam (50 ppm) (concentrations expressed are final assay concentrations). The pH was adjusted to 7.00 at 22° C. by addition of potassium hydroxide.
The protein components specific to this assay are chicken gizzard smooth muscle myosin subfragment-1 that has been chemically crosslinked to either cardiac or skeletal actin using an excess of 1-Ethyl-3-[3-dimethylaminopropyl]carbodiimide hydrochloride and N-hydroxysuccinimide. The exact concentration of the crosslinked smooth muscle myosin in the assay is determined empirically, by titration to achieve a desired rate of ATP hydrolysis. The concentration varies between protein preparations due to variations in the fraction of active molecules in each preparation.
Compound dose response assays are performed by first preparing a dilution series of test compound, each with an assay mixture containing potassium PIPES, MgCl2, KCl, ATP, BSA, potassium phosphate, amplex red, PEP, crosslinked smooth muscle actomyosin (subfragment-1), antifoam, and water. The assay is started by adding an equal volume of solution containing potassium Pipes, MgCl2, KCl, BSA, potassium phosphate, pyruvate kinase, horseradish peroxidase, pyruvate oxidase, antifoam, and water. ATP hydrolysis is monitored by measuring the fluorescence of amplex red (excitation at 480 nm, emission at 615 nm). The resulting dose response curve is fit by the 4 parameter equation y=Bottom+((Top-Bottom)/(1+((IC50/X)^Hill))). The IC50 is defined as the concentration at which ATPase activity is midway between the top and bottom of the dose response curve.

T1 sequence (P02607 2-151): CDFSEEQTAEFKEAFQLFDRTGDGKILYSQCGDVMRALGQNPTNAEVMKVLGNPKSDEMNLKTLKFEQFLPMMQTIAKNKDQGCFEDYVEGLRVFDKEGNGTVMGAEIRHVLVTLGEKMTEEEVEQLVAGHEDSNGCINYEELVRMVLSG
T1 sequence (P10587 84-789): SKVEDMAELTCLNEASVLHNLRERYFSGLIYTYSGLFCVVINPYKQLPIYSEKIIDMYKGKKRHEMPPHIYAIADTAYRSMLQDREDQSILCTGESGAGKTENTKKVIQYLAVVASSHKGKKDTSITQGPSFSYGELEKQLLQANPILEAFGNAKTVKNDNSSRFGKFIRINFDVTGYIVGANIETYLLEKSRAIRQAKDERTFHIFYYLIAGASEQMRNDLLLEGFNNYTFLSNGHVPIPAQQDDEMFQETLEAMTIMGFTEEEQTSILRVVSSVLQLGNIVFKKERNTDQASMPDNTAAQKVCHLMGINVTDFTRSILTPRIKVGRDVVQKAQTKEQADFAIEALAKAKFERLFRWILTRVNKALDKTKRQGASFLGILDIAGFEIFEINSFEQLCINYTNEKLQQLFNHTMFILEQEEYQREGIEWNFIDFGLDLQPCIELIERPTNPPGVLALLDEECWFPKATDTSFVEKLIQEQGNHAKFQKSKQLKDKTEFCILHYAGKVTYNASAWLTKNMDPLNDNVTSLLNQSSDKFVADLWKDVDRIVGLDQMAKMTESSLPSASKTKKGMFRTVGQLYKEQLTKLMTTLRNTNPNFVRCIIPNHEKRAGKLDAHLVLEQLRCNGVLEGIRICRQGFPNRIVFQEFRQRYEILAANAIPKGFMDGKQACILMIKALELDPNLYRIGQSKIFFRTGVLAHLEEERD

`CC(C)(CNC(=O)c1ccc(-c2ccccc2C#N)nc1NCCc1cccc(F)c1)NC(=O)CNC(=O)OC(C)(C)C` was tested. Which IC50 did it give?
The IC50 was 9570 nM.

How did the IC50 turn out when `CC(C)(CNC(=O)c1ccc(-c2ccccc2C#N)nc1NCCc1cccc(F)c1)NC(=O)CN` was run?
Its IC50 is 320 nM.

With `CC(C)(CNC(=O)c1ccc(-c2ccccc2C#N)nc1NCCc1cccc(F)c1)NC(=O)CCCNC(=O)OC(C)(C)C` as the molecule, how does the IC50 read?
Its IC50 is 194 nM.

`CC(C)(CNC(=O)c1ccc(-c2ccccc2C#N)nc1NCCc1cccc(F)c1)NC(=O)CCCN` was tested. Which IC50 did it give?
Its IC50 is 277 nM.

Which IC50 does the source give for `N#Cc1ccccc1-c1ccc(C(=O)NCCCN2C(=O)CC[C@@H]2CN=[N+]=[N-])c(NCCc2cccc(F)c2)n1` here?
Its IC50 is 5620 nM.

How did the IC50 turn out when `N#Cc1ccccc1-c1ccc(C(=O)NCCCN2C(=O)CC[C@H]2CN=[N+]=[N-])c(NCCc2cccc(F)c2)n1` was run?
The IC50 was 16600 nM.

How did the IC50 turn out when `CN(C)C(n1cc(-c2ccc(C(=O)NC[C@H]3CCC(=O)N3CCCN)c(NCCc3cccc(F)c3)n2)cn1)=[N+](C)C` was run?
Its IC50 is 2130 nM.

For `N#Cc1ccccc1-c1ccc(C(=O)NCC2CCCN2CCCN)c(NCCc2cccc(F)c2)n1` (centres unmarked), which IC50 is on record?
The IC50 was 3500 nM.

`C[C@@H](NC(=O)c1ccc(-c2ccccc2C#N)nc1NCCc1cccc(F)c1)C(N)=O` was tested. Which IC50 did it give?
Its IC50 is 532 nM.

Which IC50 does the source give for `C[C@H](CNC(=O)c1cc(F)c(-c2cn[nH]c2)nc1NCC(O)c1cccc(F)c1)NC(=O)CNC(=O)OC(C)(C)C` (some centres unmarked) here?
Its IC50 is 14200 nM.

Which IC50 does the source give for `C[C@H](CNC(=O)c1cc(F)c(-c2cnn(C)c2)nc1NCCc1cccc(F)c1)NC(=O)CNC(=O)OC(C)(C)C` here?
Its IC50 is 1750 nM.

For `C[C@H](CNC(=O)c1cc(F)c(-c2cnn(C)c2)nc1NCCc1cccc(F)c1)NC(=O)CCCNC(=O)OC(C)(C)C`, which IC50 is on record?
Its IC50 is 100 nM.

With `C[C@H](CNC(=O)c1cc(F)c(-c2cnn(C)c2)nc1NCCc1cccc(F)c1)NC(=O)CN(C)C` as the molecule, how does the IC50 read?
The IC50 was 121 nM.

For `C[C@H](CNC(=O)c1cc(F)c(-c2cnn(C)c2)nc1NCCc1cccc(F)c1)NC(=O)CCCN`, which IC50 is on record?
Its IC50 is 116 nM.

`C[C@H](CNC(=O)c1cc(F)c(-c2cnn(C)c2)nc1NCCc1cccc(F)c1)NC(=O)[C@@H](N)CO` was tested. Which IC50 did it give?
Its IC50 is 115 nM.

How did the IC50 turn out when `C[C@H](CNC(=O)c1cc(F)c(-c2cnn(C)c2)nc1NCCc1cccc(F)c1)NC(=O)C(C)(C)N` was run?
Its IC50 is 285 nM.

`C[C@H](CNC(=O)c1cc(F)c(-c2cnn(C)c2)nc1NCCc1cccc(F)c1)NC(=O)[C@H](C)N` was tested. Which IC50 did it give?
The IC50 was 131 nM.

With `CC(=O)N[C@H](C)CNC(=O)c1cc(F)c(-c2cnn(C)c2)nc1NCCc1cccc(F)c1` as the molecule, how does the IC50 read?
The IC50 was 251 nM.

For `C[C@H](CNC(=O)c1cc(F)c(-c2cnn(C)c2)nc1NCCc1cccc(F)c1)NC(=O)CN`, which IC50 is on record?
The IC50 was 76 nM.

Which IC50 does the source give for `C[C@H](CNC(=O)c1cc(F)c(-c2cn[nH]c2)nc1NCCc1cccc(F)c1)NC(=O)CN` here?
The IC50 was 122 nM.

How did the IC50 turn out when `C[C@H](CNC(=O)c1cc(F)c(-c2cnn(C)c2)nc1NCCc1cccc(F)c1)NC(=O)[C@H](CO)NC(=O)OC(C)(C)C` was run?
The IC50 was 2260 nM.

`C[C@H](CNC(=O)c1cc(F)c(-c2cnn(C)c2)nc1NCCc1cccc(F)c1)NC(=O)CO` was tested. Which IC50 did it give?
The IC50 was 197 nM.

How did the IC50 turn out when `C[C@H](CNC(=O)c1cc(F)c(-c2cn[nH]c2)nc1NCCn1cccn1)NC(=O)CN` was run?
Its IC50 is 4640 nM.

`C[C@H](CNC(=O)c1ccc(-c2ccccc2C#N)nc1NCCc1cccc(F)c1)NC(=O)CNC(=O)OC(C)(C)C` was tested. Which IC50 did it give?
The IC50 was 2310 nM.

For `C[C@H](CNC(=O)c1ccc(-c2ccccc2C#N)nc1NCCc1cccc(F)c1)N(C)C(=O)CCCNC(=O)OC(C)(C)C`, which IC50 is on record?
Its IC50 is 3680 nM.

How did the IC50 turn out when `C[C@H](CNC(=O)c1ccc(-c2ccccc2C#N)nc1NCCc1cccc(F)c1)N(C)C(=O)CCCN` was run?
The IC50 was 710 nM.

For `C[C@H](CNC(=O)c1ccc(-c2ccccc2C#N)nc1NCCc1cccc(F)c1)N(C)C(=O)CNC(=O)OC(C)(C)C`, which IC50 is on record?
The IC50 was 5920 nM.

How did the IC50 turn out when `C[C@H](CNC(=O)c1ccc(-c2ccccc2C#N)nc1NCCc1cccc(F)c1)NC(=O)CCCN` was run?
The IC50 was 204 nM.

`C[C@H](CNC(=O)c1ccc(-c2ccccc2C#N)nc1NCCc1cccc(F)c1)NC(=O)CN` was tested. Which IC50 did it give?
Its IC50 is 41 nM.

For `C[C@H](CNC(=O)c1ccc(-c2ccccc2C#N)nc1NCCc1cccc(F)c1)NC(=O)CCCNC(=O)OC(C)(C)C`, which IC50 is on record?
The IC50 was 49 nM.

How did the IC50 turn out when `C[C@H](CNC(=O)c1ccc(-c2ccccc2C#N)nc1NCCc1cccc(F)c1)N(C)C(=O)CN` was run?
Its IC50 is 152 nM.

How did the IC50 turn out when `C[C@@H](CNC(=O)c1cc(F)c(-c2cnn(C)c2)nc1NCCc1cccc(F)c1)NC(=O)CN` was run?
Its IC50 is 1800 nM.

How did the IC50 turn out when `C[C@@H](CNC(=O)c1ccc(-c2ccccc2C#N)nc1NCCc1cccc(F)c1)N(C)C(=O)CCCN` was run?
Its IC50 is 6830 nM.

With `C[C@@H](CNC(=O)c1ccc(-c2ccccc2C#N)nc1NCCc1cccc(F)c1)NC(=O)CCCNC(=O)OC(C)(C)C` as the molecule, how does the IC50 read?
Its IC50 is 2020 nM.

For `C[C@@H](CNC(=O)c1ccc(-c2ccccc2C#N)nc1NCCc1cccc(F)c1)NC(=O)CN`, which IC50 is on record?
Its IC50 is 1460 nM.

How did the IC50 turn out when `C[C@@H](CNC(=O)c1ccc(-c2ccccc2C#N)nc1NCCc1cccc(F)c1)N(C)C(=O)CN` was run?
Its IC50 is 3250 nM.

For `C[C@@H](CNC(=O)c1ccc(-c2ccccc2C#N)nc1NCCc1cccc(F)c1)NC(=O)CCN`, which IC50 is on record?
Its IC50 is 3560 nM.

`O=C(NCc1cccnc1Cl)c1ccc(-c2cn[nH]c2)nc1NCCc1cccc(F)c1` was tested. Which IC50 did it give?
Its IC50 is 46 nM.

Which IC50 does the source give for `N#Cc1ccccc1-c1ccc(C(=O)NC[C@H]2CCCN2CCCN)c(NCCc2cccc(F)c2)n1` here?
The IC50 was 1390 nM.

For `N#Cc1ccccc1-c1ccc(C(=O)NC[C@H]2CCCN2C(=O)CCCN)c(NCCC2CCOCC2)n1`, which IC50 is on record?
Its IC50 is 8770 nM.

Which IC50 does the source give for `N#Cc1ccccc1-c1ccc(C(=O)NC[C@H]2CCCN2C(=O)CCCN)c(NCCC2CCCCO2)n1` (some centres unmarked) here?
The IC50 was 2040 nM.

How did the IC50 turn out when `C[N+]1(C)CCC[C@@H]1CNC(=O)c1ccc(-c2ccccc2C#N)nc1NCCc1cccc(F)c1` was run?
Its IC50 is 2050 nM.

With `N#Cc1ccccc1-c1ccc(C(=O)NC[C@H]2O[C@@H](O)[C@H](O)[C@@H](O)[C@@H]2O)c(NCCc2cccc(F)c2)n1` as the molecule, how does the IC50 read?
The IC50 was 5540 nM.

`CC(NC(=O)c1ccc(-c2ccccc2C#N)nc1NCCc1cccc(F)c1)C(N)=O` (centres unmarked) was tested. Which IC50 did it give?
Its IC50 is 564 nM.

`N#Cc1ccccc1CCNc1nc(-c2ccccc2)ccc1C(=O)NCc1cccnc1` was tested. Which IC50 did it give?
Its IC50 is 260 nM.

How did the IC50 turn out when `O=C(NCc1cccnc1)c1ccc(-c2ccccc2)nc1NCCc1ccc2c(c1)OCO2` was run?
Its IC50 is 28300 nM.

How did the IC50 turn out when `Cn1cc(-c2ccc(C(=O)NCc3cccnc3)c(NCCc3cccc(F)c3)n2)cn1` was run?
The IC50 was 40 nM.

How did the IC50 turn out when `[N-]=[N+]=NCc1cc(C(=O)NCc2cccnc2)c(NCCc2cccc(F)c2)nc1-c1ccccc1` was run?
Its IC50 is 428 nM.

Which IC50 does the source give for `CC(C)(C)OC(=O)NCc1cccc(CNC(=O)c2ccc(-c3ccccc3C#N)nc2NCCc2cccc(F)c2)n1` here?
The IC50 was 1190 nM.

`CN1CC(=O)N[C@@H](CNC(=O)c2ccc(-c3ccccc3C#N)nc2NCCc2cccc(F)c2)C1` (stereo in doubt) [(6-(2-cyanophenyl)-2-{[2-(3-fluorophenyl)ethyl]amino}(3-pyridyl))-N-[(4-methyl-6-oxopiperazin-2-yl)methyl]carboxamide] was tested. Which IC50 did it give?
Its IC50 is 37 nM.

With `CS(=O)(=O)N1CC(=O)N[C@@H](CNC(=O)c2ccc(-c3ccccc3C#N)nc2NCCc2cccc(F)c2)C1` (stereo in doubt) [(6-(2-cyanophenyl)-2-{[2-(3-fluorophenyl)ethyl]amino}(3-pyridyl))-N-{[4-(methylsulfonyl)-6-oxopiperazin-2-yl]methyl}carboxamide] as the molecule, how does the IC50 read?
Its IC50 is 2560 nM.

For `CC(C)(C)OC(=O)NCCN1CCC[C@H](NC(=O)c2ccc(-c3ccccc3C#N)nc2NCCc2cccc(F)c2)C1=O` (stereo in doubt) [N-(1-{2-[(tert-butoxy)carbonylamino]ethyl}-2-oxo(3-piperidyl))(6-(2-cyanophenyl)-2-{[2-(3-fluorophenyl)ethyl]amino}(3-pyridyl))carboxamide], which IC50 is on record?
The IC50 was 15300 nM.

For `N#Cc1ccccc1-c1ccc(C(=O)N[C@H]2CCCN(CCN)C2=O)c(NCCc2cccc(F)c2)n1` (stereo in doubt) [N-[1-(2-aminoethyl)-2-oxo(3-piperidyl)](6-(2-cyanophenyl)-2-{[2-(3-fluorophenyl)ethyl]amino}(3-pyridyl))carboxamide], which IC50 is on record?
The IC50 was 18500 nM.

How did the IC50 turn out when `N#Cc1ccccc1-c1ccc(C(=O)NCCN2CCC[C@H](N)C2=O)c(NCCc2cccc(F)c2)n1` (stereo in doubt) [N-[2-(3-amino-2-oxopiperidyl)ethyl](6-(2-cyanophenyl)-2-{[2-(3-fluorophenyl)ethyl]amino}(3-pyridyl))carboxamide] was run?
Its IC50 is 2950 nM.

How did the IC50 turn out when `CC(=O)N1CC(=O)N[C@@H](CNC(=O)c2ccc(-c3ccccc3C#N)nc2NCCc2cccc(F)c2)C1` (stereo in doubt) [N-[(4-acetyl-6-oxopiperazin-2-yl)methyl](6-(2-cyanophenyl)-2-{[2-(3-fluorophenyl)ethyl]amino}(3-pyridyl))carboxamide] was run?
Its IC50 is 1630 nM.

For `OC(CNCc1ccccn1)c1ccc(-c2ccccc2)nc1NCCc1cccc(F)c1` (centres unmarked) [1-(2-{[2-(3-fluorophenyl)ethyl]amino}-6-phenyl(3-pyridyl))-2-[(2-pyridylmethyl)amino]ethan-1-ol], which IC50 is on record?
The IC50 was 19400 nM.
